These results are taken from a melting point compilation (Tetko et al.).

For `Cc1ccc(N(C(=O)CCCl)C2C=CS(=O)(=O)C2)cc1C` (centres undefined), the melting point was in the range of 122 to 124 °C.

`Cc1cc(N)nn1-c1ccc(F)cc1F` showed a melting point of 120 to 122 °C.

With `COc1ccc(NC(=O)CCl)cc1S(=O)(=O)N1CCCCC1`, the melting point was 142 to 144 °C.

Turning to `Cc1nn(C(C)(C)C)c2nc(C(C)C)cc(C(=O)O)c12`, the melting point fell in the range of 121 to 123 °C.

For `CC(Cl)C(=O)Nc1ccc([N+](=O)[O-])cc1Cl` (centres undefined), the melting point was in the range of 87 to 89 °C.

For the molecule `Cc1ccc(N2C(=O)CCC(C(=O)O)C2c2cccs2)cc1` (centres undefined), the melting point fell in the range of 249 to 251 °C.

`CCS(=O)(=O)c1ccccc1Oc1ccc(N)cc1` displayed a melting point of 124 to 126 °C.

As for `COC(=O)Cc1nnc(N)[nH]1`, the melting point is 159 to 161 °C.

Turning to `CC(C)(C)c1ccc(N)c(C(=O)O)c1`, the melting point was in the range of 144 to 146 °C.

As to `CCNC(=O)NC(=O)CCl`, the melting point lay in the range of 138 to 140 °C.

Molecule `OC(c1ccncc1)c1ccc(F)cc1` (centres undefined) registered a melting point of 136 to 138 °C.

Turning to `COc1ccc2c(c1)OCC(C#N)=C2`, the melting point fell in the range of 93 to 95 °C.

`Cn1nnnc1-c1cccc(N)c1` returned a melting point of 147 to 149 °C.

Take `N#CCC(=O)N(CC(F)(F)F)C1CC1`: the melting point was 69 to 71 °C.

`Cn1nc(Br)c2c(NCCN)ncnc21` came in with a melting point of 120 to 122 °C.

The molecule `NCC(O)c1ccccc1F` (centres undefined) came in with a melting point of 62 to 64 °C.

In turn, `CC(C)c1nc(CC(=O)O)cs1` yielded a melting point of 87 to 89 °C.

Turning to `NC1(c2nn[nH]n2)CCCC1`, the melting point fell in the range of 229 to 231 °C.

Turning to `CC1CCc2c(sc3nc(CN4CCOCC4)nc(Cl)c23)C1` (centres undefined), the melting point fell in the range of 55 to 57 °C.

`O=S(=O)(Cl)c1c(Cl)ccc2c(Cl)ccnc12`: the melting point was 155 to 157 °C.

Take `Nc1c(Oc2ccc(Cl)cc2)ccc2ncccc12`: the melting point is 124 to 126 °C.

Regarding `Cn1c(O)c([N+](=O)[O-])c(=O)c2ccccc21`, the melting point is 159 to 161 °C.

For `Cc1nn(Cc2ccccc2)c(C)c1C(=O)O`, the melting point fell in the range of 137 to 139 °C.

The molecule `O=C(O)c1cccc(N2C(=O)C=CC2=O)c1` displayed a melting point of 231 to 233 °C.

Turning to `Cc1nc(-c2ccc(F)cc2)sc1C(=O)O`, the melting point was in the range of 251 to 253 °C.

`CS(=O)(=O)c1ccccc1CC(=O)O` showed a melting point of 154 to 156 °C.

On to `COc1ccc(N)cc1S(=O)(=O)NC1CC1`, for which the melting point was in the range of 163 to 165 °C.

For `CC(C)n1nc(C(=O)O)c2ccccc2c1=O`, the melting point was in the range of 142 to 144 °C.

Consider `CN(C)C(Cc1ccccc1)C(=O)O` (centres undefined), for which the melting point lay within 225 to 227 °C.

Regarding `Cc1ccc2ncc(C#N)n2c1`, the melting point fell in the range of 126 to 128 °C.

Molecule `Cc1nc(C)c(S(N)(=O)=O)s1` registered a melting point of 142 to 144 °C.

`O=C(O)c1ccc2c(=O)n(-c3cccc(Cl)c3)c(=O)[nH]c2c1` had a melting point of 365 to 367 °C.

In the case of `Fc1ccc(C(c2ccc(F)cc2)N2CCNCC2)cc1`, the melting point lay within 89 to 92 °C.

As to `O=C(O)c1cc(-c2ccccc2Cl)[nH]n1`, the melting point was in the range of 225 to 227 °C.

Turning to `COc1cc(C(=O)O)cc(Cl)c1OC(C)C`, the melting point fell in the range of 156 to 158 °C.

For `COC(=O)c1oc2ccccc2c1C`, the melting point lay in the range of 70 to 72 °C.

For the molecule `NC(C(=O)O)(c1cccc(Cl)c1)C(F)(F)F` (centres undefined), the melting point was in the range of 109 to 111 °C.

In turn, `NC(=O)c1cc(Cl)ccn1` had a melting point of 157 to 159 °C.

`O=C(CBr)c1ccc(Cl)s1`: the melting point was 113 to 115 °C.

`COc1ccc2[nH]c(NCc3ccccc3)nc2c1` had a melting point of 179 to 181 °C.

Consider `CCOC(=O)c1sc(NC(=O)CCl)c(C(=O)OC(C)(C)C)c1C`, for which the melting point fell in the range of 148 to 150 °C.

`NC(=O)Cc1csc(N)n1` had a melting point of 158 to 165 °C.

`NCc1ccnc(NC2CC2)c1` yielded a melting point of 39 to 41 °C.

Turning to `NC(=O)c1ccc(NCCO)c([N+](=O)[O-])c1`, the melting point fell in the range of 218 to 220 °C.

Turning to `NC1CCc2[nH]ncc2C1` (centres undefined), the melting point is 168 to 170 °C.

Consider `CC(=O)Nc1ccc(S(=O)(=O)N2CCC(N)CC2)cc1`, for which the melting point was in the range of 212 to 214 °C.

Take `Nc1ccc2nc(-c3ccccn3)oc2c1`: the melting point is 178 to 180 °C.

In the case of `Nc1cc(C2CC2)nn1-c1ccccc1`, the melting point is 134 to 136 °C.

In the case of `CC(=O)C(N)=S`, the melting point lay within 59 to 61 °C.

Regarding `O=[N+]([O-])c1ccc(S(=O)(=O)Cl)c(F)c1`, the melting point lay in the range of 72 to 74 °C.

As to `Cc1cc2c[nH]nc2c(C(=O)O)c1N`, the melting point is 174 to 176 °C.

Regarding `N#Cc1c(Cl)nc2sccn12`, the melting point was in the range of 174 to 176 °C.

Molecule `Cc1cccc(-n2c(C)cc(/C=C(\C#N)C(=O)O)c2C)c1` displayed a melting point of 75 to 77 °C.

Regarding `CCOC(=O)N1CCC(NC(N)=O)CC1`, the melting point lay in the range of 203 to 205 °C.

`O=Cc1ccc(-c2cccc(Cl)c2Cl)o1`: the melting point was in the range of 94 to 98 °C.

In turn, `Cc1nc(-c2ccncc2)nc(Cl)c1C` showed a melting point of 112 to 114 °C.

For `COC(=O)c1cc(F)cc(S(=O)(=O)Cl)c1Br`, the melting point was in the range of 73 to 75 °C.

The molecule `C=CCC(NC(=O)OCc1ccccc1)c1ccccc1` (centres undefined) yielded a melting point of 65 to 67 °C.

On to `O=C1NC(=O)C(=Cc2ccccc2C(F)(F)F)S1`, for which the melting point lay within 170 to 172 °C.

In turn, `COc1ccc(C(CC(=O)O)NC(C)=O)cc1` (centres undefined) showed a melting point of 186 to 188 °C.

In turn, `O=c1c2sc(-c3ccccc3)cc2nc(S)n1Cc1ccccc1` yielded a melting point of 313 to 315 °C.

`O=C(CCl)Nc1cc(-n2cnnn2)ccc1Cl` had a melting point of 179 to 181 °C.

As to `O=C(O)C1(O)CCSCC1`, the melting point fell in the range of 118 to 120 °C.

Molecule `NC(Cc1c[nH]c2ccc([N+](=O)[O-])cc12)C(=O)O` (centres undefined) came in with a melting point of 259 to 261 °C.

`Nc1ncn(Cc2ccncc2)n1` came in with a melting point of 156 to 158 °C.

For the molecule `COC(=O)COc1ccc(C(=O)O)cc1`, the melting point fell in the range of 172 to 174 °C.

`N#Cc1cccc(NC(=O)CCl)c1` showed a melting point of 143 to 145 °C.

Take `Cc1cccc(NC(=O)Nc2cccc3c2NCCC3)c1`: the melting point was in the range of 168 to 170 °C.

Regarding `O=C(O)c1cccc2[nH]ncc12`, the melting point lay in the range of 285 to 287 °C.

Molecule `COC(=O)c1ccc(O)c(C(C)=O)c1` yielded a melting point of 96 to 98 °C.

Consider `CCc1ccc(N2CC(C(=O)O)CC2=O)cc1` (centres undefined), for which the melting point fell in the range of 144 to 148 °C.

The molecule `NC(=O)c1cccc(F)c1I` yielded a melting point of 189 to 191 °C.

Take `O=C(Nc1ccc([N+](=O)[O-])cc1Cl)OCC(F)(F)F`: the melting point was 132 to 134 °C.

Molecule `Cc1cc(C(=O)O)c(C)n1Cc1ccccc1` had a melting point of 196 to 200 °C.

`COc1ccccc1NC(=O)CC1Nc2ccccc2NC1=O` (centres undefined) gave a melting point of 172 to 174 °C.

With `COc1ccccc1Oc1ccc(C(N)=S)cc1`, the melting point fell in the range of 193 to 195 °C.

In turn, `Cn1c(=O)ccn(CC(=O)O)c1=O` yielded a melting point of 240 to 242 °C.

Turning to `CC(Cl)c1nc2scc(-c3cccs3)c2c(=O)[nH]1` (centres undefined), the melting point fell in the range of 241 to 243 °C.

Regarding `O=C(O)c1cc([N+](=O)[O-])cc([N+](=O)[O-])c1F`, the melting point fell in the range of 204 to 206 °C.

In turn, `O=Cc1c(N2CCOCC2)nc2ccccn12` had a melting point of 164 to 166 °C.

Molecule `CC1NCCNC1=O` (centres undefined) displayed a melting point of 65 to 67 °C.

Take `CCOC(=O)c1cc(C2CC2)[nH]n1`: the melting point was 98 to 100 °C.

In turn, `NC(=O)CCC(NS(=O)(=O)c1cccc(C(F)(F)F)c1)C(=O)O` (centres undefined) yielded a melting point of 164 to 166 °C.

Turning to `O=C1COc2ccc(F)cc2N1`, the melting point lay in the range of 204 to 206 °C.
